Results as given in US7807439B2, “Staphylococcus aureus-specific detection media and identifying and/or counting method using same” (Biomerieux S.A., priority 2001, dated 2010).

These compounds were tested on S. aureus 070 (assay: Experiment 5: fluorescent substrates in liquid medium, VITEK 2 reading). Conditions: substrate 200 mg/l, read over 19 hours.
Type: cell-based, Staphylococcus aureus
Description: (§1) The media below were prepared in the base of the medium described in experiment 1, but in the absence of agar and in the presence of a fluorescent substrate instead of a chromogenic substrate. […] The various liquid media are distributed into the cupules of a support the size of a bank card, specific for the automated VITEK 2 (trademark) system of the company bioMérieux. […] The results, given in table 9 below, represent the incubation time, in hours, required to obtain the maximum level of fluorescence which can be measured by the device: […]

Row | Compound | hours of incubation required to obtain the maximum level of fluorescence
1 | Cc1cc(=O)oc2cc(O[C@H]3O[C@H](CO)[C@@H](O)[C@H](O)[C@H]3O)ccc12 [4-MU-α-GLU, 4-methylumbelliferyl-α-D-glucoside] | 8 h
2 | Cc1cc(=O)oc2cc(O[C@@H]3O[C@H](CO)[C@H](O)[C@H](O)[C@H]3O)ccc12 [4-MU-β-GAL, 4-methylumbelliferyl-β-D-galactoside] | 3 h
3 | Cc1cc(=O)oc2cc(O[C@@H]3O[C@H](CO)[C@@H](O)[C@H](O)[C@H]3O)ccc12 [4-MU-β-GLU, 4-methylumbelliferyl-β-D-glucoside] | 4 h
4 | Cc1cc(=O)oc2cc(O[C@@H]3O[C@H](C(=O)O)[C@@H](O)[C@H](O)[C@H]3O)ccc12 [4-MU-β-GUR, 4-methylumbelliferyl-β-D-glucuronide] | 3 h

Each compound was assayed on S. aureus 276 in the same assay as above. Conditions: substrate 200 mg/l, read over 19 hours.
Type: cell-based, Staphylococcus aureus
Description: as §1

Row | Compound | hours of incubation required to obtain the maximum level of fluorescence
5 | Cc1cc(=O)oc2cc(O[C@H]3O[C@H](CO)[C@@H](O)[C@H](O)[C@H]3O)ccc12 [4-MU-α-GLU, 4-methylumbelliferyl-α-D-glucoside] | 7 h
6 | Cc1cc(=O)oc2cc(O[C@@H]3O[C@H](CO)[C@H](O)[C@H](O)[C@H]3O)ccc12 [4-MU-β-GAL, 4-methylumbelliferyl-β-D-galactoside] | 3 h
7 | Cc1cc(=O)oc2cc(O[C@@H]3O[C@H](CO)[C@@H](O)[C@H](O)[C@H]3O)ccc12 [4-MU-β-GLU, 4-methylumbelliferyl-β-D-glucoside] | 6 h
8 | Cc1cc(=O)oc2cc(O[C@@H]3O[C@H](C(=O)O)[C@@H](O)[C@H](O)[C@H]3O)ccc12 [4-MU-β-GUR, 4-methylumbelliferyl-β-D-glucuronide] | 3 h

The compounds below were run on S. epidermidis 009 in the same assay as above. Conditions: substrate 200 mg/l, read over 19 hours.
Type: cell-based, Staphylococcus epidermidis
Description: as §1

Row | Compound | hours of incubation required to obtain the maximum level of fluorescence
9 | Cc1cc(=O)oc2cc(O[C@H]3O[C@H](CO)[C@@H](O)[C@H](O)[C@H]3O)ccc12 [4-MU-α-GLU, 4-methylumbelliferyl-α-D-glucoside] | 19 h
10 | Cc1cc(=O)oc2cc(O[C@@H]3O[C@H](CO)[C@H](O)[C@H](O)[C@H]3O)ccc12 [4-MU-β-GAL, 4-methylumbelliferyl-β-D-galactoside] | 4 h
11 | Cc1cc(=O)oc2cc(O[C@@H]3O[C@H](CO)[C@@H](O)[C@H](O)[C@H]3O)ccc12 [4-MU-β-GLU, 4-methylumbelliferyl-β-D-glucoside] | 8 h
12 | Cc1cc(=O)oc2cc(O[C@@H]3O[C@H](C(=O)O)[C@@H](O)[C@H](O)[C@H]3O)ccc12 [4-MU-β-GUR, 4-methylumbelliferyl-β-D-glucuronide] | 4 h

What follows are compounds tested on S. xylosus 008 in the same assay as above. Conditions: substrate 200 mg/l, read over 19 hours.
Type: cell-based, Staphylococcus xylosus
Description: as §1

Row | Compound | hours of incubation required to obtain the maximum level of fluorescence
13 | Cc1cc(=O)oc2cc(O[C@H]3O[C@H](CO)[C@@H](O)[C@H](O)[C@H]3O)ccc12 [4-MU-α-GLU, 4-methylumbelliferyl-α-D-glucoside] | 11 h
14 | Cc1cc(=O)oc2cc(O[C@@H]3O[C@H](CO)[C@H](O)[C@H](O)[C@H]3O)ccc12 [4-MU-β-GAL, 4-methylumbelliferyl-β-D-galactoside] | 5 h
15 | Cc1cc(=O)oc2cc(O[C@@H]3O[C@H](CO)[C@@H](O)[C@H](O)[C@H]3O)ccc12 [4-MU-β-GLU, 4-methylumbelliferyl-β-D-glucoside] | 9 h
16 | Cc1cc(=O)oc2cc(O[C@@H]3O[C@H](C(=O)O)[C@@H](O)[C@H](O)[C@H]3O)ccc12 [4-MU-β-GUR, 4-methylumbelliferyl-β-D-glucuronide] | 5 h

What follows are compounds tested on S. saprophyticus 030 in the same assay as above. Conditions: substrate 200 mg/l, read over 19 hours.
Type: cell-based, Staphylococcus saprophyticus
Description: as §1

Row | Compound | hours of incubation required to obtain the maximum level of fluorescence
17 | Cc1cc(=O)oc2cc(O[C@H]3O[C@H](CO)[C@@H](O)[C@H](O)[C@H]3O)ccc12 [4-MU-α-GLU, 4-methylumbelliferyl-α-D-glucoside] | 19 h
18 | Cc1cc(=O)oc2cc(O[C@@H]3O[C@H](CO)[C@H](O)[C@H](O)[C@H]3O)ccc12 [4-MU-β-GAL, 4-methylumbelliferyl-β-D-galactoside] | 12 h
19 | Cc1cc(=O)oc2cc(O[C@@H]3O[C@H](CO)[C@@H](O)[C@H](O)[C@H]3O)ccc12 [4-MU-β-GLU, 4-methylumbelliferyl-β-D-glucoside] | 9 h
20 | Cc1cc(=O)oc2cc(O[C@@H]3O[C@H](C(=O)O)[C@@H](O)[C@H](O)[C@H]3O)ccc12 [4-MU-β-GUR, 4-methylumbelliferyl-β-D-glucuronide] | 19 h

The compounds below were run on S. haemolyticus 131 in the same assay as above. Conditions: substrate 200 mg/l, read over 19 hours.
Type: cell-based, Staphylococcus haemolyticus
Description: as §1

Row | Compound | hours of incubation required to obtain the maximum level of fluorescence
21 | Cc1cc(=O)oc2cc(O[C@H]3O[C@H](CO)[C@@H](O)[C@H](O)[C@H]3O)ccc12 [4-MU-α-GLU, 4-methylumbelliferyl-α-D-glucoside] | 19 h
22 | Cc1cc(=O)oc2cc(O[C@@H]3O[C@H](CO)[C@H](O)[C@H](O)[C@H]3O)ccc12 [4-MU-β-GAL, 4-methylumbelliferyl-β-D-galactoside] | 12 h
23 | Cc1cc(=O)oc2cc(O[C@@H]3O[C@H](CO)[C@@H](O)[C@H](O)[C@H]3O)ccc12 [4-MU-β-GLU, 4-methylumbelliferyl-β-D-glucoside] | 7 h
24 | Cc1cc(=O)oc2cc(O[C@@H]3O[C@H](C(=O)O)[C@@H](O)[C@H](O)[C@H]3O)ccc12 [4-MU-β-GUR, 4-methylumbelliferyl-β-D-glucuronide] | 19 h

These compounds were tested on S. intermedius 075 in the same assay as above. Conditions: substrate 200 mg/l, read over 19 hours.
Type: cell-based, Staphylococcus intermedius
Description: as §1

Row | Compound | hours of incubation required to obtain the maximum level of fluorescence
25 | Cc1cc(=O)oc2cc(O[C@H]3O[C@H](CO)[C@@H](O)[C@H](O)[C@H]3O)ccc12 [4-MU-α-GLU, 4-methylumbelliferyl-α-D-glucoside] | 5 h
26 | Cc1cc(=O)oc2cc(O[C@@H]3O[C@H](CO)[C@H](O)[C@H](O)[C@H]3O)ccc12 [4-MU-β-GAL, 4-methylumbelliferyl-β-D-galactoside] | 2 h
27 | Cc1cc(=O)oc2cc(O[C@@H]3O[C@H](CO)[C@@H](O)[C@H](O)[C@H]3O)ccc12 [4-MU-β-GLU, 4-methylumbelliferyl-β-D-glucoside] | 7 h
28 | Cc1cc(=O)oc2cc(O[C@@H]3O[C@H](C(=O)O)[C@@H](O)[C@H](O)[C@H]3O)ccc12 [4-MU-β-GUR, 4-methylumbelliferyl-β-D-glucuronide] | 2 h

These compounds were tested on Staphylococcal species (assay: Experiment 6: Staphylococcal growth in the presence of inhibitors). Conditions: inhibitors added to the medium, concentrations per mixture.
Type: cell-based, Staphylococcus

Row | Compound | Staphylococcal growth
29 | [Cl-].[Li+] [LiCl, lithium chloride] | decreases
30 | C[C@H]1[C@H](NC(=O)/C(=N\OC(C)(C)C(=O)O)c2csc(N)n2)C(=O)N1S(=O)(=O)O [aztreonam] | does not disturb the bacterial growth
31 | colistin | virtually no effect

What follows are compounds tested on α-glucosidase (assay: Experiment 6: detection of α-glucosidase activity in the presence of inhibitors). Conditions: inhibitors added to the medium, concentrations per mixture.
Type: cell-based, Staphylococcus

Row | Compound | effect on detection/expression of α-glucosidase
32 | C[C@H]1[C@H](NC(=O)/C(=N\OC(C)(C)C(=O)O)c2csc(N)n2)C(=O)N1S(=O)(=O)O [aztreonam] | very slightly decreased

What follows are compounds tested on coagulase-positive staphylococcal strains (assay: Experiment 5: fluorescent substrates, summary for coagulase-positive strains). Conditions: not given.
Type: cell-based, Staphylococcus aureus and Staphylococcus intermedius
Description: as §1

Row | Compound | incubation time to obtain a maximum level of fluorescence
33 | Cc1cc(=O)oc2cc(O[C@H]3O[C@H](CO)[C@@H](O)[C@H](O)[C@H]3O)ccc12 [4-MU-α-GLU, 4-methylumbelliferyl-α-D-glucoside] | < 8 h

What follows are compounds tested on coagulase-negative strains (assay: Experiment 5: fluorescent substrates, summary for coagulase-negative strains). Conditions: not given.
Type: cell-based
Description: as §1

Row | Compound | incubation time to obtain a maximum level of fluorescence
34 | Cc1cc(=O)oc2cc(O[C@H]3O[C@H](CO)[C@@H](O)[C@H](O)[C@H]3O)ccc12 [4-MU-α-GLU, 4-methylumbelliferyl-α-D-glucoside] | > 10 h
